Data from US7183411B2, “Naphthol, quinoline and isoquinoline-derived urea modulators of vanilloid VR1 receptor” (Janssen Pharmaceutica N.V., priority 2002, dated 2007).

Experiments:
[1] = molecular target: T1, human VR1 vanilloid receptors (Homo sapiens, UniProt Q8NER1); test: [3H] RTX binding assay, hVR1 membranes from transfected HEK293 cells; conditions: human VR1, read-out: Receptor binding Ki
T1 construct: expressed in transfected cells; host or cells: HEK293
Procedure: Compounds of the present invention were tested for their ability to inhibit the binding of [^3H] RTX to hVR1 receptors in a [^3H] RTX binding assay as previously described (Zhang, Sui-Po. Improved ligand binding assays for vanilloid receptors. PCT Int. Appl. (2002), 29 pp. CODEN: PIXXD2 WO 0233411 A1 20020425 AN 2002:315209; Grant, Elfrida R.; Dubin, Adrienne E.; Zhang, Sui-Po; Zivin, Robert A.; Zhong, Zhong Simultaneous intracellular calcium and sodium flux imaging in human vanilloid receptor 1 (VR1)-transfected human embryonic kidney cells: a method to resolve ionic dependence of VR1-mediated cell death. Journal of Pharmacology and Experimental Therapeutics (2002), 300(1), 9–17.)
HEK293 cells were transfected with human VR1 vanilloid receptors and washed with Hank's Balanced Salt Solution, dissociated with cell dissociation buffer (Sigma), and then centrifuged at 1000×g for 5 min. Cell pellets were homogenized in cold 20 mM HEPES buffer, pH 7.4, containing 5.8 mM NaCl, 320 mM sucrose, 2 mM MgCl2, 0.75 CaCl2 and 5 mM KCl and centrifuged at 1000×g for 15 min. The resultant supernate was then centrifuged at 40000×g for 15 min. The pelleted membranes were kept in an −80° C. freezer.
Approximately 120 μg protein/ml from membranes were incubated with indicated concentrations of [^3H] RTX in 0.5 ml of the HEPES buffer (pH 7.4) containing 0.25 mg/mL fatty acid-free bovine serum albumin at 37° C. for 60 min. The reaction mixture was then cooled to 4° C., 0.1 mg α1-acid glycoprotein added to each sample and incubated at 4° C. for 15 min. The samples were centrifuged at 18500×g for 15 min. The tip of the microcentrifuge tube containing the pellet was cut off. Bound radioactivity was quantified by scintillation counting. Non-specific binding was tested in the presence of 200 nM unlabeled RTX.

[2] = molecular target: T2, human VR1 (Homo sapiens, UniProt Q8NER1); test: Human VR1 functional assay (FLIPR intracellular Ca2+, capsaicin challenge); type: cell-based; conditions: read-out: In vitro functional assays hIC50 or EC50
T2 construct: expressed in transfected cells; host or cells: HEK293
Procedure: The functional activity of the test compounds was determined by measuring changes in intracellular calcium concentration using a Ca^++-sensitive fluorescent dye and FLIPR™ technology.
HEK293 Cells expressing human VR1 were grown on poly-D-lysine coated 96 well black-walled plates (BD 354640) and 2 days later loaded with Fluo-3/AM for 1 hour and subsequently tested for agonist-induced increases in intracellular Ca^2+ levels using FLIPR™ technology. […] EC50 or IC50 values were determined from dose-response studies.

[3] = test system: Carrageenan paw-induced thermal hyperalgesia; test: Carrageenan paw-induced thermal hyperalgesia; type: in vivo; conditions: rat, po, reversal of carrageenan thermal hyperalgesia; read-out: CgHP ED50
Procedure: Each rat is placed on a heated surface (51° C.) in order to measure the time necessary to elicit a response, and an initial (baseline) response time to a thermal stimuli was recorded for each animal. A response is defined as any shaking, licking, or tucking of the treated paw or jumping. Animals not treated with a test compound respond in approximately 20 seconds. The maximal exposure time permitted is 60 seconds to prevent tissue damage. Rats were injected with an irritant (e.g., 1% carrageenan solution in 0.9% saline) subcutaneously into the sub-plantar tissue of the left hind paw to stimulate an acute inflammatory reaction.
Two hours later, the response time of the animal to the thermal stimulus was evaluated and compared to the animal's baseline response time. This shorter response time was recorded as percent hyperalgesia (% H). A cut-off value for % H (usually 75%) was used during analysis to ensure that the animals were hyperalgesic. Animals were then dosed with test drug or vehicle.
At some time(s) later (typically 45 and 90 minutes), the response time of the animal to the thermal stimulus was again evaluated. For each time point, a percent reversal of hyperalgesia (% R) was calculated using the following formula: % R=(Drug Latency−Carrageenan latency)/(Baseline latency−Carrageenan latency). ED50 values were calculated from % R obtained at several drug doses.

[4] = test system: capsaicin-induced guinea pig bronchial ring contraction; test: Isolated guinea pig bronchial rings, capsaicin-induced contraction (organ bath)
Procedure: Aminotetralin VR1 antagonists were tested for their potency to block capsaicin-induced guinea pig bronchial ring contraction in a standard in vitro organ bath assay [Tucker, 2001]. Two mm rings of bronchial tissue obtained from male guinea pigs (325 g) were suspended in normal Krebs solution between two wire hooks under an initial loading tension of 1 gram. The saline was maintained in a 5% CO2 and 95% O2 atmosphere at 37° C. in the presence of indomethacin (5 μM). A sub-maximal dose of 5-Methylfurmethide (5Mef, 1 μM) was added to each tissue to determine responsiveness using an isometric force transducer. After washout, tissues were exposed to compounds or vehicle for 30 min, treated with thiorphan (10 μM, 5% Na2CO3), and primed using KCl in increasing linear concentrations from 1 mM at 1 mM intervals until a slight increase in muscle tone was induced (˜1% of 5Mef response). […] The dose response curve was calculated as % max of the 5-Mef response and estimated pA2 were determined [Tucker, 2001]).

[5] = test system: DSS-induced acute colitis; test: Rodent colitis model (5% dextran sulfate sodium); type: in vivo, mice or rats; conditions: preliminary study
Procedure: 5% Dextran Sulfate Sodium administered in the drinking water of mice or rats for 7 days results in an acute colitis with some morphological changes that are similar to human ulcerative colitis. Among those changes are colon shortening, accumulation of neutrophils and other inflammatory cells, decreases in colon weight, decreases in body weight, tissue damage in the colon, and loss of stool consistency.
Each animal is dosed daily in the morning and late afternoon for BID dosing. Treatment with vehicle or test compound begins on day 0, immediately after initial body weights are taken, and ends on day 6. Water bottles are removed and replaced by graduated water bottles containing 5% DSS in indicated groups. Tap water remains on control groups only. Sufficient DSS drinking water is placed in graduated water bottles and refilled each day to monitor daily output. Animals are weighed daily from day 0 to 7, and animal condition and the consistency of stools recorded. Following sacrifice of the animal on day 7, the colon is surgically removed from the distal rectum (anus) to the cecal-colonic juncture and the colon length and weight measured. Colon slices may be obtained for histological evaluation. […] Water consumption and body weights are measured daily. […] An increase in myeloperoxidase activity occurs in this model and is evaluated separately.

[6] = molecular target: T3, VR1 (rat spinal cord) (Rattus norvegicus, UniProt O35433); test: [3H]-RTX binding assay using rat tissue (spinal cord membranes); conditions: cells marked (rat), read-out: Receptor binding Ki (rat)
T3 construct: Rat spinal cord was homogenized twice with a Polytron; from tissue; host or cells: rat spinal cord membranes
Procedure: Alternatively, a binding assay using rat tissue was used. Rat spinal cord was homogenized twice with a Polytron and centrifuged at 3000 rpm for 10 min in HEPES buffer containing 20 mM HEPES, pH 7.4, NaCl 5.8 mM, sucrose 320 mM, MgCl2 2 mM, CaCl2 0.75 mM and KCl 5 mM. The supernatant was then centrifuged at 18,000 rpm for 20 min. The pellet was saved in a tube and 10 ml assay buffer was added into the tube. The pellet and buffer were mixed with a Polytron. The assay contained 120 μg/ml membrane protein and 0.3–0.6 nM [^3H]-RTX (NEN, Boston) in a total volume of 0.5 ml HEPES buffer. Following-incubation for 60 min at 37 C, the samples were cooled down on ice, and 100 mg of α-acid glycoprotein were added into the samples. After centrifugation at 13,000 rpm for 15 min, the supernatant was aspirated and the tips of tubes were cut off and placed into 6 ml vials. Data were calculated according to the equation: % inhibition=(total binding−binding)*100/(total binding−non specific binding). Ki value values were calculated using a Prism program.

[7] = molecular target: T4, VR1 expressed endogenously on small rat dorsal root ganglion (DRG) neurons (Rattus norvegicus, UniProt O35433); test: Electrophysiologic functional assay using dissociated rat DRG cells; type: cell-based; conditions: read-out: In vitro functional assays Estimated pA2 (rat) (converted)
T4 construct: VR1 expressed endogenously on small rat dorsal root ganglion (DRG) neurons; endogenous in cells; host or cells: dissociated rat DRG neurons
Procedure: Compounds are tested for their activity on VR1 expressed endogenously on small rat dorsal root ganglion (DRG) neurons. DRG neurons from normal rats were dissociated (see methods in Chaplan et al., 2003) and whole cell currents mediated by VR1 were recorded using the whole cell patch clamp technique.

[8] = test system: capsaicin-induced cough responses; test: Capsaicin-induced cough (antitussive efficacy); type: in vivo; conditions: guinea pig, 25 mg/kg IP at -60 min; vehicle 3.0±0.5; P<0.001
Procedure: The antitussive activity of intraperitoneally (IP) administered compound is assessed at a single dose level against casaicin-induced cough responses as compared to positive and vehicle controls. Thirty-six male Dunkin-Hartley guinea pigs (295–590 g, mean 425 g) are randomly allocated to one of three groups (n=12 guinea pigs per group). […] Guinea pigs are dosed IP at −60 min with vehicle (15% Solutol in 5% dextrose solution); the positive control codeine (25 mg/kg), or test compound (20 mg/kg in 15% Solutol in 5% dextrose solution). Individual guinea pigs are placed in an exposure chamber with an airflow of 3 L/min at −10 min to acclimatize. […] The mean±SEM number of capsaicin-induced cough responses recorded in vehicle pre-treated guinea pigs was 3.0±0.5. […] ANOVA statistical analysis was used to determine the level of significance.

T1 sequence (Q8NER1 whole entry): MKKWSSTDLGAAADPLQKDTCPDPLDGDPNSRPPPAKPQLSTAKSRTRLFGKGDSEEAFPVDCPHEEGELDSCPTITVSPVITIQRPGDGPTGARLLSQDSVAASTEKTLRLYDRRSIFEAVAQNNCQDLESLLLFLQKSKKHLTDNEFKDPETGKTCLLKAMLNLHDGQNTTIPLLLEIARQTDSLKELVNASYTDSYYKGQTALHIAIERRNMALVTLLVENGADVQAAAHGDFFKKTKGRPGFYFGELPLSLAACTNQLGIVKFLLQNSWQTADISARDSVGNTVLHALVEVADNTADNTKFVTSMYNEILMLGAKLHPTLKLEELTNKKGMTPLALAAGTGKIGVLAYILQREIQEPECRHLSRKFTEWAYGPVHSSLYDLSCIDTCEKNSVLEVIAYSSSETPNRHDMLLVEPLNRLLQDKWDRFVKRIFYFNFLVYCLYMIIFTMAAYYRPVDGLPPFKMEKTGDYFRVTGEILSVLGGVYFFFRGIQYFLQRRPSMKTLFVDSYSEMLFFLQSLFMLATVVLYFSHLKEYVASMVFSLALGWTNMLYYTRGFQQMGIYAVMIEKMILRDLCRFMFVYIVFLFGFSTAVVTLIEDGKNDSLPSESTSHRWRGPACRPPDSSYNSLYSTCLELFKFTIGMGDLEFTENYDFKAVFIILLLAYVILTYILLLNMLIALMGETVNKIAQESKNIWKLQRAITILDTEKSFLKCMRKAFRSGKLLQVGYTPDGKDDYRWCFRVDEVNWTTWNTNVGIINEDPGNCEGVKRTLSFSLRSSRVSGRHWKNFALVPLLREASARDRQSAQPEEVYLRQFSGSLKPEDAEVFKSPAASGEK
T4 sequence (O35433 whole entry): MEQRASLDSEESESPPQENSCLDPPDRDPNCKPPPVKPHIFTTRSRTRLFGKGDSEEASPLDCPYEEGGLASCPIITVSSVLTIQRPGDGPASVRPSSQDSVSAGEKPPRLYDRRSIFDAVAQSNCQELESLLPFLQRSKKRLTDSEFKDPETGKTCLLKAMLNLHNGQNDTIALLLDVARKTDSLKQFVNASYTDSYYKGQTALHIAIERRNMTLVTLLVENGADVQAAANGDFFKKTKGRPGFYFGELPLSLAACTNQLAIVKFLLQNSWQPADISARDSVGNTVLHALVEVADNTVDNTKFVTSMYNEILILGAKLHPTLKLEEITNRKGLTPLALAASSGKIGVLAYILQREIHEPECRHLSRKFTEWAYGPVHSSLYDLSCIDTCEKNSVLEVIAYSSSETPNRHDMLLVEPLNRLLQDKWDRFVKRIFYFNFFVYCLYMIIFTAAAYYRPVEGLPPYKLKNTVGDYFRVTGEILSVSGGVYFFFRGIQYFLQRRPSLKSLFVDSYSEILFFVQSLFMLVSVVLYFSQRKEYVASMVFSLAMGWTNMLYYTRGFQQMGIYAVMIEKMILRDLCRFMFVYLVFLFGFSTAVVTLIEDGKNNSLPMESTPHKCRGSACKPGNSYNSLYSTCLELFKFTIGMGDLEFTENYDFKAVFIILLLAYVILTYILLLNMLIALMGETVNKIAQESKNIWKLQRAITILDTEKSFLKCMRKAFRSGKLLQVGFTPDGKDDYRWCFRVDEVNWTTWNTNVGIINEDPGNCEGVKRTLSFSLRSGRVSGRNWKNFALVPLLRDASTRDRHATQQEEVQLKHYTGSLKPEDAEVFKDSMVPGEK
T3 sequence (O35433 whole entry): as above
T2 sequence (Q8NER1 whole entry): as the sequence (Q8NER1 whole entry) above

## CC(C)(C)c1ccc(CNC(=O)Nc2cccc3cnccc23)cc1 [Compound 33]
[1]
  Ki: 0.26 nM
[2]
  IC50 or EC50: 2.7 nM
[3]
  ED50: 0.276 mg/kg
[4]
  antagonist Kb (from pA2) against capsaicin-induced contraction: 13 nM
[5]
  protection against colon shortening: did not protect
  protection against colon weight loss: did not protect

## O=C(NCc1ccc(-c2cccs2)s1)Nc1cccc2ccc(O)cc12 [Compound 39]
[6]
  Ki: 382 nM

## O=C(NCc1ccc(Cl)c(C(F)(F)F)c1)Nc1cccc2ccc(O)cc12 [Compound 57, 1-(4-Chloro-3-trifluoromethyl-benzyl)-3-(7-hydroxy-naphthalen-1-yl)-urea]
[1]
  Ki: 1.14 nM
[7]
  Kb: ~10 nM
[3]
  ED50: 0.354 mg/kg

## COc1ccc2c3c1O[C@H]1[C@@H](O)C=C[C@H]4[C@@H](C2)N(C)CC[C@@]341 [codeine]
[8]
  number of capsaicin-induced cough responses (mean±SEM): 0.58±0.15 coughs
